Measured values from patent publication US20250268856A1, “Pain Relieving Method” (Animal Ethics Pty Ltd, priority 2019, published 2025).
“And” between values parts separate entries of the source, which are not always exact repeats. Equal values may be shown once. One block for each compound: values may come before it.

Legend:
[1] = Study 1: porcine plasma profiles of tetracaine and meloxicam applied topically to the castration surgical site; assay type: in vivo
Protocol: Dose Calculation, Preparation & Administration: Study animals were dosed according to the Treatment Regime outlined in Table 4 below. No preparation of any of the IVPs was performed other than inversion of each container 2-3 times prior to treatment.
Blood Analysis: Blood samples were collected from allocated animals via anterior vena-caval puncture using 21G, 1.5″ needle attached to 10 mL syringes and transferred immediately into 5 mL lithium heparin blood tubes. Blood samples were processed for extraction of plasma on the day of collection, which for each sample was stored in duplicate, frozen (˜−18° C.). Replicate 1 plasma samples were forwarded frozen to a laboratory for tetracaine and meloxicam analyses after the conclusion of the animal phase.
Study animals were dosed according to the application rates detailed in Table 4. No preparation of any of the IVPs was required prior to dosing.
Castration was performed using a sterile scalpel as per the following process: • 1. Piglet to be gently restrained (for a minimum of 30 seconds prior to incision) in Kerble piglet cradle in order to expose the ano-genital region of the piglet. • 2. Only when piglet is settled, incise scrotum (including tunica) with one single transverse incision to expose and exteriorise each testis; • 3. Immediately apply treatment (40% total dose to each side) to coat the exposed spermatic cord and the cut skin edge. […] Wait 30 seconds; • 5. The testis may then be removed by severing the cord as per routine procedure. Remove each testis as per normal procedure. • 6. Apply the remaining 20% of the total dose evenly of the surface of the surgical wound.

[2] = male, pig, in vivo
[3] = Study 2: motor response scores to the procedure of castration; assay type: in vivo, piglets; details: during the procedure (castration), versus placebo, topical to open wound
Protocol: (§1) Study 2: A follow-up study confirmed efficacy of meloxicam analgesic effects when applied to piglets via topical wound application either alone or in combination with tetracaine 2%. Piglets were treated with placebo, meloxicam 0.1%, tetracaine 2% or a combination of tetracaine 2% and meloxicam 1%, otherwise formulated as above, and examined for clinical efficacy via documentation of motor response scores to a) the procedure of castration, and b) pre- and post-operative mechanical sensory testing of the wound site using Von-Frey filament testing.

[4] = In-house trials of tetracaine applied directly to the open castration wound; assay type: in vivo, piglets; details: applied to open castration wound 20 seconds prior to severing cordal tissues, 1 ml/kg of 2% or 5% solution
Description: Tetracaine is a rapid onset surface anaesthetic, that is rapidly metabolised by plasma-esterases, such that may induce high potency local effects with minimal systemic effects. […] Topical wound application formulations were thus developed to examine the potential for systemic NSAID analgesic drug (meloxicam) delivery via topical wound application, applied alone, or combined with topical local anaesthetic (tetracaine) to the castration wound in piglets. Topical wound application formulations were developed containing meloxicam alone, tetracaine alone and combinations of meloxicam and tetracaine to examine systemic absorption and clinical effects.

[5] = Study 2: post-operative mechanical sensory testing of the wound site using Von-Frey filament testing (motor response scores); assay type: in vivo, piglets; details: versus placebo
Protocol: as §1

Meloxicam concentration in porcine plasma ([1]; 1 hr post-treatment, individual piglets, topical to castration wound): 102.9 ng/mL and 118.0 ng/mL
Meloxicam concentration in porcine plasma ([1]; 2 hr post-treatment, individual piglets, topical to castration wound): 126.7 ng/mL and 238.9 ng/mL
Sustained plasma levels of meloxicam ([1]; group level (FIG. 4)): 100 to 200 ng/mL
concentration at 15 min ([1]; male, pig, plasma, topical, 15 min post-treatment, individual piglets, topical to castration wound): 86.9 ng/mL
concentration at 30 min ([1]; male, pig, plasma, topical, 30 min post-treatment, individual piglets, topical to castration wound): 109 ng/mL
concentration at 1 hr ([1]; male, pig, plasma, topical, 1 hr post-treatment, individual piglets, topical to castration wound): 190 ng/mL
concentration at 2 hr ([1]; male, pig, plasma, topical, 2 hr post-treatment, individual piglets, topical to castration wound): 126 ng/mL
Time of peak plasma meloxicam level ([1]; post-treatment, group level (FIGS. 4, 5)): 4 h
SMILES: Cc1cnc(NC(=O)C2=C(O)c3ccccc3S(=O)(=O)N2C)s1 [Meloxicam]
Meloxicam concentration in porcine plasma ([1]; 15 min post-treatment, individual piglets, topical to castration wound): 144.8 ng/mL and 119.8 ng/mL and 81.8 ng/mL and 88.2 ng/mL
Meloxicam concentration in porcine plasma ([1]; 30 min post-treatment, individual piglets, topical to castration wound): 166.0 ng/mL and 94.6 ng/mL and 101.3 ng/mL and 104.8 ng/mL
Meloxicam concentration in porcine plasma ([1]; 4 hr post-treatment, individual piglets, topical to castration wound): 100.9 ng/mL and 458.7 ng/mL and 63.3 ng/mL and 230.0 ng/mL and 244.6 ng/mL and 113.2 ng/mL

Period plasma levels remained at those levels [2]: 24 h
SMILES: CCCCN1CCCCC1C(=O)Nc1c(C)cccc1C (stereo not drawn) [bupivacaine]

Time of peak plasma tetracaine level ([1]; male, pig, in vivo): 1 h
SMILES: CCCCNc1ccc(C(=O)OCCN(C)C)cc1 [Tetracaine]
Motor response scores [3]: significant reduction
Pain during castration and in the first minutes and 1-2 hours following [4]: effective to ameliorate pain
Motor response scores ([5]; 1 minute following the procedure): significant reduction
Motor response scores ([5]; 1 hour following the procedure): anaesthetic effects were still evident
Motor response scores ([5]; 12 hours following the procedure): rebound hyperaesthesia
